Literature values, collected in patent US20210346549A1, “Non-Contact Sanitizing Products and Elements” (Segan Industries, Inc., priority 2020, published 2021).

How the values were obtained:
coronavirus 229E = conditions: 1-minute contact time; free chlorine concentration of 1,000 ppm and 5,000 ppm
[1] = system: sporicidal, bactericidal, virulcide, and fungicidal; conditions: low concentrations
bacterial spores = conditions: gas-aerosol concentration of 15 to 20 mg/m3, relative humidity of about 80%
vegetative bacteria = conditions: gas-aerosol concentration of 15 to 20 mg/m3, relative humidity of about 80%
[2] = vaccine content versus toxic quantity

OCl [sodium hypochlorite]
virucidal efficacy against coronavirus 229E (coronavirus 229E): effective

CC(=O)OO [Peracetic acid]
concentration at which sporicidal, bactericidal, virulcide, and fungicidal [1]: < 0.3%

O=CCCCC=O [glutaraldehyde]
decimal reduction time (bacterial spores): less than 45 min
decimal reduction time (vegetative bacteria): less than 5 min

C=O [formaldehyde]
quantity present in vaccines lower than that necessary to induce toxicity in experimental animals [2]: at least 600 fold
